# Data taken from patent publication US7452479B2, “Chemical base for fuel cell engine heat exchange coolant/antifreeze comprising 1,3-propanediol” (Shell Oil Company, priority 2001, dated 2008).
# Like-named read-outs stand apart in the source and are kept apart here.
# How the values were obtained:
# Physical property data = format: physicochemical
# ASTM D1177 freeze point = format: physicochemical
# Text: FIG. 1 illustrates the aqueous solution freeze point characteristics of the 1,3-propanediol and GM 6043 (EG). […] This could be an indication that actual protection against hard, damaging freezing is actually better, approaching the effective protection point of the EG-based product. […] We feel that the antifreeze properties of the chemistry are acceptable. Indeed a 50% solution would provide adequate protection against freezing in most geographies. TC in FIG. 1 is an internal designation for the PDO aqueous solutions at 50, 55, and 60 volume percent PDO.
Structure (SMILES),Specific Gravity (Physical property data),Specific Gravity (Physical property data; 20° C.),Freeze protection (ASTM D1177 freeze point; 55% in water),Appearance at the reported freeze point (ASTM D1177 freeze point; aqueous solution)
"OCCO [EG, ethylene glycol]",1.115,–,–,–
"OCCCO [PDO, 1,3-propanediol]",–,1.0526,equivalent to 50% EG,soft and slushy
"CC(O)CO (centres unmarked) [PG, propylene glycol]",–,1.032,–,–
